Measured values taken from patent US11427549B2, “Pyrimidinyloxy benzo-fused compounds as herbicides” (FMC Corporation, priority 2017, dated 2022).

How the values were obtained:
[1] = system: foxtail, green (green foxtail, Setaria viridis); assay: Test A preemergence, foxtail, green; format: in vivo; settings: Setaria, pre-emergence, 240 h, 0 to 100 scale (0 no effect, 100 complete control), read-out: Plant response rating, Foxtail, Green; for pest or weed control at 31 g/ha: 31 g ai/ha; for pest or weed control at 125 g/ha: 125 g ai/ha
[2] = system: ryegrass, Italian (Italian ryegrass, Lolium multiflorum); assay: Test A postemergence, ryegrass, Italian; format: in vivo; settings: Lolium multiflorum, post-emergence, 240 h, 0 to 100 scale (0 no effect, 100 complete control), read-out: Plant response rating, Ryegrass, Italian; for pest or weed control at 31 g/ha: 31 g ai/ha; for pest or weed control at 125 g/ha: 125 g ai/ha
[3] = system: barnyardgrass (Echinochloa crus-galli); assay: Test A preemergence, barnyardgrass; format: in vivo; settings: Echinochloa crus-galli, pre-emergence, 240 h, 0 to 100 scale (0 no effect, 100 complete control), read-out: Plant response rating, Barnyardgrass; for pest or weed control at 31 g/ha: 31 g ai/ha; for pest or weed control at 125 g/ha: 125 g ai/ha
rice (Oryza sativa) = assay: Test B flooded paddy test, rice; settings: Oryza sativa, read-out: Plant response rating, Rice (0 to 100 scale, 0 is no effect, 100 is complete control)
[4] = system: wheat (Triticum aestivum); assay: Test A postemergence, wheat; format: in vivo; settings: Triticum aestivum, post-emergence, 240 h, 0 to 100 scale (0 no effect, 100 complete control), read-out: Plant response rating, Wheat; for plant injury at 31 g/ha: 31 g ai/ha; for plant injury at 125 g/ha: 125 g ai/ha
kochia (Kochia scoparia) [5] = assay: Test A preemergence, kochia; format: in vivo; settings: Bassia scoparia, pre-emergence, 240 h, 0 to 100 scale (0 no effect, 100 complete control), read-out: Plant response rating, Kochia; for pest or weed control at 31 g/ha: 31 g ai/ha; for pest or weed control at 125 g/ha: 125 g ai/ha
[6] = system: pigweed (Amaranthus retroflexus); assay: Test A preemergence, pigweed; format: in vivo; settings: Amaranthus retroflexus, pre-emergence, 240 h, 0 to 100 scale (0 no effect, 100 complete control), read-out: Plant response rating, Pigweed; for pest or weed control at 31 g/ha: 31 g ai/ha; for pest or weed control at 125 g/ha: 125 g ai/ha
[7] = system: blackgrass (Alopecurus myosuroides); assay: Test A postemergence, blackgrass; format: in vivo; settings: Alopecurus myosuroides, post-emergence, 240 h, 0 to 100 scale (0 no effect, 100 complete control), read-out: Plant response rating, Blackgrass; for pest or weed control at 31 g/ha: 31 g ai/ha; for pest or weed control at 125 g/ha: 125 g ai/ha
corn (Zea mays) = assay: Test A postemergence, corn; format: in vivo; settings: Zea mays, post-emergence, 240 h, 0 to 100 scale (0 no effect, 100 complete control); for Corn plant response rating (crop injury, 0 = no effect, 100 = complete kill) at 31 g/ha: 31 g ai/ha; for Corn plant response rating (crop injury, 0 = no effect, 100 = complete kill) at 125 g/ha: 125 g ai/ha
[8] = system: ducksalad (Heteranthera limosa); assay: Test B flooded paddy test, ducksalad; settings: Heteranthera limosa, read-out: Plant response rating, Ducksalad (0 to 100 scale, 0 is no effect, 100 is complete control)
[9] = system: ragweed (common ragweed, Ambrosia elatior); assay: Test A postemergence, ragweed; format: in vivo; settings: Ambrosia artemisiifolia, post-emergence, 240 h, 0 to 100 scale (0 no effect, 100 complete control), read-out: Plant response rating, Ragweed; for pest or weed control at 31 g/ha: 31 g ai/ha; for pest or weed control at 125 g/ha: 125 g ai/ha
[10] = system: barnyardgrass (Echinochloa crus-galli); assay: Test B flooded paddy test, barnyardgrass; settings: Echinochloa crus-galli, read-out: Plant response rating, Barnyardgrass (0 to 100 scale, 0 is no effect, 100 is complete control)
[11] = system: ryegrass, Italian (Italian ryegrass, Lolium multiflorum); assay: Test A preemergence, ryegrass, Italian; format: in vivo; settings: Lolium multiflorum, pre-emergence, 240 h, 0 to 100 scale (0 no effect, 100 complete control), read-out: Plant response rating, Ryegrass, Italian; for pest or weed control at 31 g/ha: 31 g ai/ha; for pest or weed control at 125 g/ha: 125 g ai/ha
[12] = system: ragweed (common ragweed, Ambrosia elatior); assay: Test A preemergence, ragweed; format: in vivo; settings: Ambrosia artemisiifolia, pre-emergence, 240 h, 0 to 100 scale (0 no effect, 100 complete control), read-out: Plant response rating, Ragweed; for pest or weed control at 31 g/ha: 31 g ai/ha; for pest or weed control at 125 g/ha: 125 g ai/ha
kochia (Kochia scoparia) [13] = assay: Test A postemergence, kochia; format: in vivo; settings: Bassia scoparia, post-emergence, 240 h, 0 to 100 scale (0 no effect, 100 complete control), read-out: Plant response rating, Kochia; for pest or weed control at 31 g/ha: 31 g ai/ha; for pest or weed control at 125 g/ha: 125 g ai/ha
[14] = system: galium (catchweed bedstraw, Galium aparine); assay: Test A postemergence, galium; format: in vivo; settings: Galium, post-emergence, 240 h, 0 to 100 scale (0 no effect, 100 complete control), read-out: Plant response rating, Galium; for pest or weed control at 31 g/ha: 31 g ai/ha; for pest or weed control at 125 g/ha: 125 g ai/ha
[15] = system: pigweed (Amaranthus retroflexus); assay: Test A postemergence, pigweed; format: in vivo; settings: Amaranthus retroflexus, post-emergence, 240 h, 0 to 100 scale (0 no effect, 100 complete control), read-out: Plant response rating, Pigweed; for pest or weed control at 31 g/ha: 31 g ai/ha; for pest or weed control at 125 g/ha: 125 g ai/ha
[16] = system: barnyardgrass (Echinochloa crus-galli); assay: Test A postemergence, barnyardgrass; format: in vivo; settings: Echinochloa crus-galli, post-emergence, 240 h, 0 to 100 scale (0 no effect, 100 complete control), read-out: Plant response rating, Barnyardgrass; for pest or weed control at 31 g/ha: 31 g ai/ha; for pest or weed control at 125 g/ha: 125 g ai/ha

Row | Compound | pest or weed control at 31 g/ha [1] [%] | pest or weed control at 125 g/ha [1] [%] | pest or weed control at 31 g/ha [2] [%] | pest or weed control at 125 g/ha [2] [%] | pest or weed control at 31 g/ha [3] [%] | pest or weed control at 125 g/ha [3] [%] | plant injury at 250 g/ha (rice (Oryza sativa)) [%] | plant injury at 31 g/ha [4] [%] | plant injury at 125 g/ha [4] [%] | pest or weed control at 31 g/ha (kochia (Kochia scoparia) [5]) [%] | pest or weed control at 125 g/ha (kochia (Kochia scoparia) [5]) [%] | pest or weed control at 31 g/ha [6] [%] | pest or weed control at 125 g/ha [6] [%] | pest or weed control at 31 g/ha [7] [%] | pest or weed control at 125 g/ha [7] [%] | Corn plant response rating (crop injury, 0 = no effect, 100 = complete kill) at 31 g/ha (corn (Zea mays)) [%] | Corn plant response rating (crop injury, 0 = no effect, 100 = complete kill) at 125 g/ha (corn (Zea mays)) [%] | pest or weed control at 250 g/ha [8] [%] | pest or weed control at 31 g/ha [9] [%] | pest or weed control at 125 g/ha [9] [%] | other results
1 | FC(F)(F)CCCC1CCc2cccc(Oc3ncc(Cl)cn3)c21 (stereo not drawn) [Compound 9, 5-Chloro-2-[[2,3-dihydro-3-(4,4,4-trifluorobutyl)-1H-inden-4-yl]oxy]pyrimidine] | 70 | 100 | 10 | 30 | 10 | 90 | 50 | 10 | 20 | 10 | 50 | 10 | 100 | 20 | 80 | 20 | 30 | 100 | 0 | 10 | pest or weed control at 250 g/ha [10]: 70%; pest or weed control at 31 g/ha [11]: 10%; pest or weed control at 125 g/ha [11]: 50%; pest or weed control at 31 g/ha [12]: 0%; pest or weed control at 125 g/ha [12]: 10%; pest or weed control at 31 g/ha (kochia (Kochia scoparia) [13]): 50%; pest or weed control at 125 g/ha (kochia (Kochia scoparia) [13]): 80%; pest or weed control at 31 g/ha [14]: 20%; pest or weed control at 125 g/ha [14]: 30%; pest or weed control at 31 g/ha [15]: 80%; pest or weed control at 125 g/ha [15]: 100%; pest or weed control at 31 g/ha [16]: 20%; pest or weed control at 125 g/ha [16]: 50%
2 | OC1CC(CCCC(F)(F)F)c2c(Oc3ncc(Cl)cn3)cccc21 (stereo not drawn) [Compound 10, 4-[(5-Chloro-2-pyrimidinyl)oxy]-2,3-dihydro-3-(4,4,4-trifluorobutyl)-1H-inden-1-ol] | 60 | 90 | 0 | 30 | 10 | 70 | 25 | 0 | 10 | 0 | 30 | 100 | 100 | 10 | 20 | 10 | 30 | 95 | 0 | 10 | pest or weed control at 250 g/ha [10]: 45%; pest or weed control at 31 g/ha [11]: 10%; pest or weed control at 125 g/ha [11]: 30%; pest or weed control at 31 g/ha [12]: 0%; pest or weed control at 125 g/ha [12]: 0%; pest or weed control at 31 g/ha (kochia (Kochia scoparia) [13]): 10%; pest or weed control at 125 g/ha (kochia (Kochia scoparia) [13]): 60%; pest or weed control at 31 g/ha [14]: 10%; pest or weed control at 125 g/ha [14]: 20%; pest or weed control at 31 g/ha [15]: 50%; pest or weed control at 125 g/ha [15]: 90%; pest or weed control at 31 g/ha [16]: 10%; pest or weed control at 125 g/ha [16]: 40%
